This note sets out measurements from PubChem BioAssay (NCI).

What all share (experiment): NCI anticancer screen, dose series, 48 h
Assay [1] relates to MDA-MB-231 breast.
For assay [2], the system named is ACHN renal.
Assay [3] deals with BT-549 breast.
For assay [4], the system named is NCI-H460 lung.
The subject of assay [5] is OVCAR-3 ovarian.
For assay [6], the system named is IGROV1 ovarian.
Assay [7] has as its system NCI-H23 lung.
In assay [8] the test system is HT29 colon.
The subject of assay [9] is TK-10 renal.
In assay [10] the test system is OVCAR-5 ovarian.
Assay [11] concerns RXF 393 renal.
Assay [12] concerns NCI-H226 lung.
In assay [13] the test system is SF-295 CNS.

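All cell lines were grown in 96-well plates and treated with compound for 48 hours. The concentration for full growth arrest is given as TGI.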

For the compound `O=C1CC(c2ccccc2)C2(C(=O)NC(=S)NC2=O)C(c2ccccc2)C1` (stereo unspecified), the TGI in assay [1], in assay [2], in [3], in assay [4], in assay [5] and in assay [6] was more than 75 µM throughout. In addition, the TGI in [7], in [8], in assay [9], in assay [10], in assay [11] and in assay [12] was more than 75 µM each time. The same compound displayed a TGI in assay [13] of more than 75 µM.
Take `O=C(/C=C/c1ccc(-c2ccccc2)cc1)NCc1ccc(C(=O)NCc2ccccc2)cc1`: the TGI in assay [1], in [2], in assay [3], in assay [4], in [5] and in assay [6] was more than 100 µM each time. Also, the TGI is more than 100 µM in [7]; more than 100 µM in assay [8]; more than 100 µM in assay [9]; more than 100 µM in [10]; 67.3 µM in assay [11]; more than 100 µM in assay [12]. Moreover, the TGI in assay [13] was more than 100 µM.
For `CC(=O)OC12C3C4C1C1C2C3C41OC(C)=O` (stereo unspecified), the TGI in [1], in assay [2], in assay [3], in assay [4], in [5] and in assay [6] was more than 100 µM each time. The TGI in assay [7], in [8], in assay [9], in [10], in assay [11] and in assay [12] was more than 100 µM in each case. The TGI in assay [13] is more than 100 µM.
In the case of `CC(C)(C)OC(=O)N(CCCCNC(=O)OCc1ccccc1)CCCNC(=O)OCc1ccccc1`, the TGI in [1] is more than 100 µM; in [2] it was 22.6 µM; in [3] it was more than 100 µM; in assay [4] it was more than 100 µM; in [5], more than 100 µM; in assay [6], more than 100 µM. Also, the TGI in assay [7], in [8], in assay [9], in [10], in assay [11] and in assay [12] was more than 100 µM throughout. Moreover, in assay [13], the TGI was more than 100 µM.
Regarding `CCOC(=O)c1nnsc1N/N=C\c1ccc([N+](=O)[O-])cc1`, the TGI in assay [1], in assay [2], in assay [3], in [4], in [5] and in assay [6] was more than 100 µM throughout. Also, the TGI in [7], in assay [8], in assay [9], in [10], in assay [11] and in [12] was more than 100 µM in each case. In [13], the TGI is more than 100 µM.
For the compound `Cc1ccccc1OC(C)C(=O)NN1C(=O)CSC1c1ccc(Cl)cc1` (stereo unspecified), the TGI was 86 µM in [1]; more than 68.9 µM in [2]; 98.9 µM in [3]; more than 56.8 µM in assay [4]; more than 93.6 µM in assay [5]; more than 100 µM in [6]. Besides, the TGI in assay [7] was more than 100 µM; in assay [8], 38.6 µM; in [9], more than 100 µM; in assay [10], more than 100 µM; in [11] it was more than 86.9 µM; in assay [12] it was more than 82.6 µM. This compound came in with a TGI in assay [13] of more than 61.3 µM.
Regarding `CC[C@@]1(O)C(=O)OCc2c1cc1n(c2=O)Cc2c-1nc1ccccc1c2/C=N\NC(=O)C1CCCN1` (stereo partly specified), the TGI was more than 100 µM in assay [1]; 1.02 µM in assay [2]; more than 100 µM in assay [3]; 10.5 µM in assay [4]; 43.5 µM in assay [5]; more than 96.6 µM in [6]. Also, the TGI is 0.965 µM in assay [7]; more than 100 µM in assay [8]; more than 100 µM in assay [9]; more than 73.2 µM in [10]; 2.1 µM in assay [11]; 2.8 µM in [12]. Further, the TGI in assay [13] is 18.6 µM.
